Measured values as given in the supplement of paper PMC5908809.

Key:
KHYG-1 (IL-2 2.5 ng/mL) [1] = assay: percent inhibition of viability; higher = more inhibition; conditions: 72 h
[2] = tested on: normal primary NK cells, pool 2 (3 donors) (IL-2 2.5 ng/mL); assay: as above; conditions: 72 h
DERL-7 (IL-2 2.5 ng/mL) [3] = assay: as above; conditions: 72 h
NKL (IL-2 2.5 ng/mL) [4] = assay: as above; conditions: 72 h
KAI3 (IL-2 2.5 ng/mL) [5] = assay: as above; conditions: 72 h
NK-92 (IL-2 2.5 ng/mL) [6] = assay: as above; conditions: 72 h
YT (IL-2 2.5 ng/mL) [7] = assay: as above; conditions: 72 h
[8] = tested on: normal primary NK cells, pool 3 (3 donors) (IL-2 2.5 ng/mL); assay: as above; conditions: 72 h
SNK-6 (IL-2 2.5 ng/mL) [9] = assay: as above; conditions: 72 h
[10] = tested on: normal primary NK cells, pool 1 (3 donors), resting (IL-2 0 ng/mL); assay: as above; conditions: 72 h
IMC-1 (IL-2 20 ng/mL) [11] = assay: as above; conditions: 72 h
NK-YS (IL-2 2.5 ng/mL) [12] = assay: as above; conditions: 72 h
[13] = tested on: normal primary NK cells, pool 1 (3 donors) (IL-2 2.5 ng/mL); assay: as above; conditions: 72 h
[14] = tested on: normal NK cells expanded with K562-aAPC; assay: drug sensitivity score (DSS) (DSS units); higher = more sensitive; extreme values may be limits of the assay; conditions: 72 h; IL-2 2.5 ng/mL
Experimental: (§1)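 Drug sensitivity and resistance testing on K562-aAPC-expanded normal NK cells: 5 concentrations (10-fold steps over a 10,000-fold range), 72 h at 37 °C, viability by CellTiter-Glo normalised to DMSO and benzethonium chloride controls; DSS from the fitted curve.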

KHYG-1 (IL-2 2.5 ng/mL) [15] = assay: as above; conditions: 72 h
[16] = tested on: normal primary NK cells, pool 2 (3 donors) (IL-2 2.5 ng/mL); assay: as above; conditions: 72 h
DERL-7 (IL-2 2.5 ng/mL) [17] = assay: as above; conditions: 72 h
NKL (IL-2 2.5 ng/mL) [18] = assay: as above; conditions: 72 h
KAI3 (IL-2 2.5 ng/mL) [19] = assay: as above; conditions: 72 h
NK-92 (IL-2 2.5 ng/mL) [20] = assay: as above; conditions: 72 h
YT (IL-2 2.5 ng/mL) [21] = assay: as above; conditions: 72 h
[22] = tested on: normal primary NK cells, pool 3 (3 donors) (IL-2 2.5 ng/mL); assay: as above; conditions: 72 h
SNK-6 (IL-2 2.5 ng/mL) [23] = assay: as above; conditions: 72 h
[24] = tested on: normal primary NK cells, pool 1 (3 donors), resting (IL-2 0 ng/mL); assay: as above; conditions: 72 h
IMC-1 (IL-2 20 ng/mL) [25] = assay: as above; conditions: 72 h
NK-YS (IL-2 2.5 ng/mL) [26] = assay: as above; conditions: 72 h
[27] = tested on: normal primary NK cells, pool 1 (3 donors) (IL-2 2.5 ng/mL); assay: as above; conditions: 72 h
[28] = tested on: normal NK cells expanded with K562-aAPC; assay: percent inhibition of viability; higher = more inhibition; conditions: 72 h, IL-2 2.5 ng/mL
Experimental: as §1

CC(C)Oc1ccc(C(=O)N[C@H](CNC(=O)CN(C)C)Cc2ccc(-c3cn4cccc([C@H](C)O)c4n3)cc2)cc1Cl (max concentration tested 10000 nM)
percent inhibition of viability [%]
Conditions	1 nM	10 nM	100 nM	1000 nM	10000 nM
DERL-7 (IL-2 2.5 ng/mL) [3]	3.17	0.65	70.1	99.2	98.2
IMC-1 (IL-2 20 ng/mL) [11]	-5.65	4.24	8.53	95.8	99.2
KAI3 (IL-2 2.5 ng/mL) [5]	-6.47	-5.43	37.5	53.3	103
KHYG-1 (IL-2 2.5 ng/mL) [1]	-0.23	3.89	37.2	105	106
NK-92 (IL-2 2.5 ng/mL) [6]	0.16	3.89	18.2	96.7	106
NK-YS (IL-2 2.5 ng/mL) [12]	-1.16	1.87	67.4	78.2	89.7
NKL (IL-2 2.5 ng/mL) [4]	2.24	7.12	66.4	93.5	91.1
SNK-6 (IL-2 2.5 ng/mL) [9]	1.52	24	74.4	84.6	89.7
YT (IL-2 2.5 ng/mL) [7]	1.62	7.48	76.3	101	104
[2]	-5.03	7.38	7.4	6.97	31
[8]	-8.24	-2.71	16.4	4.47	33.7
[10]	-16.4	-27	-21.3	-33.1	54.9
[13]	-2.11	-10.1	1.46	-2.94	28.1
[28]	5.14	3.61	10.7	62	88.4

Conditions	drug sensitivity score
DERL-7 (IL-2 2.5 ng/mL) [17]	25.9
IMC-1 (IL-2 20 ng/mL) [25]	18.9
KAI3 (IL-2 2.5 ng/mL) [19]	15.1
KHYG-1 (IL-2 2.5 ng/mL) [15]	23.1
NK-92 (IL-2 2.5 ng/mL) [20]	20.2
NK-YS (IL-2 2.5 ng/mL) [26]	24.4
NKL (IL-2 2.5 ng/mL) [18]	25.3
SNK-6 (IL-2 2.5 ng/mL) [23]	27.8
YT (IL-2 2.5 ng/mL) [21]	27.8
[14]	13.2
[16]	2.26
[22]	2.31
[24]	1.92
[27]	0.98

Cc1sc2c(c1C)C(c1ccc(Cl)cc1)=N[C@@H](CC(=O)Nc1ccc(O)cc1)c1nnc(C)n1-2 [OTX015] (max concentration tested 10000 nM)
percent inhibition of viability [%]
Conditions	1 nM	10 nM	100 nM	1000 nM	10000 nM
DERL-7 (IL-2 2.5 ng/mL) [3]	1.92	24	62	95.8	100
IMC-1 (IL-2 20 ng/mL) [11]	-7.07	-8.73	1.26	73.2	97.4
KAI3 (IL-2 2.5 ng/mL) [5]	3.12	-12.4	6.28	43.9	56.6
KHYG-1 (IL-2 2.5 ng/mL) [1]	-1.24	-0.67	38.7	91	106
NK-92 (IL-2 2.5 ng/mL) [6]	-10.2	-31	-32.9	22.6	36.9
NK-YS (IL-2 2.5 ng/mL) [12]	-0.13	1.91	28.4	62.4	81.9
NKL (IL-2 2.5 ng/mL) [4]	6.07	1.36	45.3	69.8	73.4
SNK-6 (IL-2 2.5 ng/mL) [9]	15.4	3.9	54.7	66.5	49.5
YT (IL-2 2.5 ng/mL) [7]	-1.39	-5.05	12.7	50.1	56.8
[2]	-6.93	6.42	15.3	54.1	76.5
[8]	-1.79	8.04	9.85	28.3	57.8
[10]	-3.45	11.8	18.6	34.9	49.6
[13]	-1.64	12.5	32.6	59.5	80.1
[28]	-2.53	-1.01	4.29	35.6	59.9

Conditions	drug sensitivity score
DERL-7 (IL-2 2.5 ng/mL) [17]	26.7
IMC-1 (IL-2 20 ng/mL) [25]	13.8
KAI3 (IL-2 2.5 ng/mL) [19]	8.88
KHYG-1 (IL-2 2.5 ng/mL) [15]	21.6
NK-92 (IL-2 2.5 ng/mL) [20]	4.42
NK-YS (IL-2 2.5 ng/mL) [26]	15.2
NKL (IL-2 2.5 ng/mL) [18]	18.9
SNK-6 (IL-2 2.5 ng/mL) [23]	19.3
YT (IL-2 2.5 ng/mL) [21]	10.8
[14]	7.54
[16]	12.1
[22]	6.65
[24]	8.82
[27]	15.7
